Assay results reported in ChEMBL document CHEMBL1133809, “Synthesis of N-propargylphenelzine and analogues as neuroprotective agents” (Bioorg Med Chem Lett, 2001).

Experiments:
Mus musculus = species: Mus musculus; experiment: Compound tested for the prevention of DSP- 4- induced depletion of noradrenaline (NA) in mouse hippocampus ex vivo; type: functional
[1] = molecular target: T1, Amine oxidase [flavin-containing] B (Rattus norvegicus, UniProt P19643); experiment: In vitro ability to inhibit Monoamine oxidase B activity in rat whole brain in vitro
T1 sequence (P19643 whole entry): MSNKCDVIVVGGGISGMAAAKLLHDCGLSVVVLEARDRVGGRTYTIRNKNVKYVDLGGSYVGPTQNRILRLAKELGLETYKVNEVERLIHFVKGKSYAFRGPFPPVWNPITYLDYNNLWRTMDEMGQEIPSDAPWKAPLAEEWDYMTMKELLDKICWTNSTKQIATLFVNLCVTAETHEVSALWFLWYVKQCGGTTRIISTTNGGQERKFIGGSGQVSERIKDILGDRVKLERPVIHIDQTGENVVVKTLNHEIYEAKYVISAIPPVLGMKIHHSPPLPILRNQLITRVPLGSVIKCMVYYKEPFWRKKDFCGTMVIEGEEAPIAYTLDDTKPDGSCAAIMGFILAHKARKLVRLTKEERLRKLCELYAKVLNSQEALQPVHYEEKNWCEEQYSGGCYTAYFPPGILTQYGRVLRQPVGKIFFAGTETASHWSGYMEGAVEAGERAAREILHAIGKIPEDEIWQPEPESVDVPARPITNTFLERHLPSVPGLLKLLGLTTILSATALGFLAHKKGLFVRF

[2] = molecular target: T2, Amine oxidase [flavin-containing] A (Rattus norvegicus, UniProt P21396); experiment: In vitro ability to inhibit Monoamine oxidase A activity in rat whole brain in vitro
T2 sequence (P21396 whole entry): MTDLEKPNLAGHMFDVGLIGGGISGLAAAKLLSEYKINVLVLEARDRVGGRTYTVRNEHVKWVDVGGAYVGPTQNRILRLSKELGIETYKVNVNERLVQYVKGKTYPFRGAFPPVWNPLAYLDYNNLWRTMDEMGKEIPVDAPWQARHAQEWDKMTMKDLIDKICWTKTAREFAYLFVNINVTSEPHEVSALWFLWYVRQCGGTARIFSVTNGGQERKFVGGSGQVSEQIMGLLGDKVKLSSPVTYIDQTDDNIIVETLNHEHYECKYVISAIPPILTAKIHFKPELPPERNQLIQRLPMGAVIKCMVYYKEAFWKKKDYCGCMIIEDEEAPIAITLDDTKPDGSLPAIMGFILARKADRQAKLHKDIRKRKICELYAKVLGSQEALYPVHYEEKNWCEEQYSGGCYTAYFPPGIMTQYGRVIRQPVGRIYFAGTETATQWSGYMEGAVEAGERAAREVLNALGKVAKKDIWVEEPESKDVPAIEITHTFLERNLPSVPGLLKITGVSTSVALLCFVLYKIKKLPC

C#CCN(N)c1ccccc1
NA restoration (Mus musculus): -49.82%
IC50 [1]: 1.01 µM
IC50 [2]: 11.3 µM

C#CCN(N)C/C=C/c1ccccc1
NA restoration (Mus musculus): -39.2%
IC50 [1]: 3.53 µM
IC50 [2]: 1.17 µM

C#CCN(C)[C@H](C)Cc1ccccc1 [SELEGILINE]
NA restoration (Mus musculus): 79.71%

C#CCNNC/C=C/c1ccccc1
NA restoration (Mus musculus): -7.21%
IC50 [1]: 10.2 µM
IC50 [2]: 7.9 µM

C#CCNNCc1ccccc1
NA restoration (Mus musculus): 31.74%
IC50 [1]: 2.84 µM
IC50 [2]: 0.362 µM

C#CCN(N)CCc1ccccc1
NA restoration (Mus musculus): 56.38%
IC50 [1]: 0.0765 µM
IC50 [2]: 2.04 µM

C#CCN(N)Cc1ccccc1
NA restoration (Mus musculus): 33.58%
IC50 [1]: 0.121 µM
IC50 [2]: 1.56 µM

NNCCc1ccccc1 [PHENELZINE]
NA restoration (Mus musculus): 43.48%
IC50 [1]: 0.0763 µM
IC50 [2]: 0.03 µM

C#CCNNCCc1ccccc1
NA restoration (Mus musculus): 76.83%
IC50 [1]: 3.18 µM
IC50 [2]: 1.85 µM
